# Results published in patent publication US20090143761A1, “AGENT DELIVERY SYSTEM AND USES OF SAME” (T[…] COMPANY, LLC, priority 2005, published 2009).
# “Also recorded” adds a separate entry of the source.
# Key:
# [1] = excised rabbit pinna skin; cited from earlier work
# [2] = tested on: Uremic rats; details: intermittent administration; cited from earlier work
# [3] = in vivo; cited from earlier work
# [4] = lithium concentration of 158.4 mM, iontophoresis, mice
# Description: First, the total charge delivered to the animal during the course of the experiment was determined.
# The animal model employed was that of the SKH-1 male mouse, 6 weeks old, obtained from Charles River Laboratories. The mice arrived the morning of the experiments and were used within three hours of their arrival.
# Due to the fragility of the iontophoresis pad application and electrode attachment, the mice had to be restrained during the experiments. To accomplish this, a commercial mouse restrainer was purchased from Kent Scientific and modified with two holders on either side of the restrainer. The holders were placed over existing access holes in the restrainer such that spring loaded electrodes could be positioned within the holder.
# The mice were given a low dosage of Halothane to allow them to be weighed and positioned in the restrainer so that there was minimal risk of the electrode pads being kicked or scraped off of the patch as the mouse was being positioned. The Halothane was administered by saturating a paper towel that had been placed at the bottom of a glass desiccator jar. The jar was placed in an exhaust fume hood prior to opening the Halothane bottle. This gave a saturated Halothane environment, in a well-ventilated area, and allowed the effects of the anesthesia to be closely monitored. […]
# [5] = patients who are prescribed lithium; cited from earlier work
# [6] = 52.8 mM and 105.6 mM donor
# [7] = tested on: humans; details: cited from earlier work
# [8] = oral administration of tablets; cited from earlier work
# [9] = cyclic voltammagrams
# [10] = Calculated diffusion and mass transfer coefficients in membranes of different thickness; details: Urea in 5.15% agar gel vs Urea, 1 mm layer
# Text: A simplified model can be developed to account for the transport of molecules out of the skin and through the sampling chamber. The model consists of diffusion through the skin, which can be approximated by diffusion through a semi-porous protein matrix membrane and then diffusion into a bulk solution. The concentration profile in the membrane and in the bulk solution may not be consistent, in which case a partition coefficient can be used to relate the transport of molecules from the membrane to the bulk solution. The use of an iontophoretic device can, by nature of the process, produce an electric field. […]
# The bulk phase diffusivity needs to be adjusted to take into account the winding path through a porous matrix. The effective diffusivity is calculated from the bulk diffusivity, void fraction, and the tortuosity. The mass transfer coefficient can be calculated from the effective diffusivity and the membrane thickness. The flux of molecules in the presence of an electrical charge can be calculated with the Nernst-plank equation.
# To illustrate the effect of diffusion through a porous matrix a few calculations were performed as an example. Assuming a protein layer of 1 mm, the mass transfer coefficients were calculated for Urea (0.88 microns/s) and for Urea in a 5.15% agar gel (0.47 microns/s). […]
# [11] = target: T1, plasma cholinesterase (Homo sapiens, UniProt P06276); assay: Selective inhibition of cholinesterase activity in plasma samples; type: biochemical; details: quinidine 20 μM; BTC vs other substrate
# T1 construct: confirming the capacity of the BTC substrate to detect cholinesterase activity in plasma; from tissue; host or cells: plasma
# [12] = In-vitro transdermal delivery of primaquine patch across human epidermal membranes with iontophoresis
# [13] = cited from earlier work
# [14] = Stability of primaquine after exposure to iontophoresis, thin layer chromatography; details: silica gel TLC, n-butanol:acetic acid:water (5:3:2)
# T1 sequence (P06276 29-602): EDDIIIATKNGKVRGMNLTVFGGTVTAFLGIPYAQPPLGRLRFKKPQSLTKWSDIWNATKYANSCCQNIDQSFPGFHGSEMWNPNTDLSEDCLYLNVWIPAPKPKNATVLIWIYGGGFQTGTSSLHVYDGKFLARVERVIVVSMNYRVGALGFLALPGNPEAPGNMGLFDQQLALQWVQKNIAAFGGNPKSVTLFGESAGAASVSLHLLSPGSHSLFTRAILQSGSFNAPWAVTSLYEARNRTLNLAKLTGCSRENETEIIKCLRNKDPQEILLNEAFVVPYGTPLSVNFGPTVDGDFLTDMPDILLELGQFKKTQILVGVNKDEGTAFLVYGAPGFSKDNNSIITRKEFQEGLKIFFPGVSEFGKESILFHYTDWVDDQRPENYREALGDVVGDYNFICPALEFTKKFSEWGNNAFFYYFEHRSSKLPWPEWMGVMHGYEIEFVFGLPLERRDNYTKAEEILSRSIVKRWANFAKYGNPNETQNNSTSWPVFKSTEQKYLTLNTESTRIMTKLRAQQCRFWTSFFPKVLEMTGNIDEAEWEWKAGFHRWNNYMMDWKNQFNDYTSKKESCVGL
compound,measurement,setting,value
"NC(=O)[C@@H]1CCCN1C(=O)[C@H](Cc1cnc[nH]1)NC(=O)[C@@H]1CCC(=O)N1 [TRH, Thyrotropin-releasing hormone]",pulsed vs continuous current iontophoretic flux,[1],the pulsed iontophoretic flux exceeded that obtained with a continuous current
"PTH(1-37): parathyroid hormone fragment given intermittently to Uremic rats (AVSEIQLMHNLGKHLASVERMQWLRKKLQDVHNFVSL; Parathyroid hormone; UniProt P04089 32-68, looked up, fragment)",effect on growth and bone mineral density,[2],improves growth and bone mineral density
"O=C([O-])[O-].[Li+].[Li+] [lithium, lithium carbonate]",plasma elimination half-life,[3],12 to 27 h
same,serum concentration of lithium,[4],approximately 0.2 mM
same,patients who experience some adverse effects,[5],More than 80%
same,effect of donor compartment lithium carbonate concentration on receiver compartment lithium concentration,[6],caused an equivalent increase in the receiver compartment lithium concentration
"CNC1(C)C2CCC(C2)C1(C)C (stereo not shown) [mecamylamine, Mecamylamine]",effect on self-reported effects of alcohol,[7],reduces the self-reported stimulant and euphoric effects of alcohol
COC(=O)C(c1ccccc1)C1CCCCN1 (stereo not shown) [Methylphenidate],bioavailability,[8],approximately 30%
CN1CCCC1c1cccnc1 (stereo not shown) [nicotine],voltage at which nicotine is oxidized,[9],~1 volt
NC(N)=O [Urea],decrease of mass transfer by addition of a gel matrix,[10],47%
C=C[C@H]1C[N@@]2CC[C@H]1C[C@@H]2[C@@H](O)c1ccnc2ccc(OC)cc12 [quinidine],inhibitory effect on cholinesterase activity in plasma samples,[11],the inhibitory effect was observed only when BTC was used
COc1cc(NC(C)CCCN)c2ncccc2c1 (stereo not shown) [primaquine],passive diffusion of primaquine before and after iontophoresis,"[12]; epidermal membrane, receptor PBS pH 7.4, no current applied",Minimal passive diffusion
same,amount of primaquine delivered using electrotransport,[12]; in 40 minutes,160 µg
same,share of the 10 mg dose delivered passively each hour,[13]; passive delivery,Approximately 5%
same,amount of primaquine delivered transdermally,"[13]; within 24 hours, to achieve therapeutic plasma concentrations",10 mg
same,stability of the primaquine molecule after exposure to iontophoresis (TLC of receptor compartment contents),[14],intact primaquine is present; also recorded: there is more than one species of molecule present
